Data reported in PMC9979715 (Blood Advances, 2022).

Molecular target: T1, MAP2K7 (Homo sapiens, UniProt O14733)
T1 sequence (O14733 2-419): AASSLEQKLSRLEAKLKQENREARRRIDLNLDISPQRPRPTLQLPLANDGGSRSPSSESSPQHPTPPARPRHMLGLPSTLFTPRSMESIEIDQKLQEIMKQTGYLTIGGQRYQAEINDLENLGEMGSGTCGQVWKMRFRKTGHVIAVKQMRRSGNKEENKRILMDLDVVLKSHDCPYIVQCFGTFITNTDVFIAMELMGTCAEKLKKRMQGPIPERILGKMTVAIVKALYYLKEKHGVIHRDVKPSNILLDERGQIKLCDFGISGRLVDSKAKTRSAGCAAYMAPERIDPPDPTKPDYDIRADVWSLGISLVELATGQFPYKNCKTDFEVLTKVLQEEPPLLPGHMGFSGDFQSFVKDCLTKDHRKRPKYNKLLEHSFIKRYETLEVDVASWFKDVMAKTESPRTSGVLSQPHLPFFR
Test: ADP-Glo kinase assay, purified human MAP2K7 with dead-JNK2 substrate and ATP
Type: biochemical

IC50: 160 nM
Structure (SMILES): CC(=O)c1cnc2ccc(-c3cc(Cl)c(O)c(Cl)c3)nc2c1N[C@H]1CC[C@H](CN(C)C)CC1 [OTSSP167]
